Assay results: patent US20100196476A1, “PROCESS FOR THE PREPARATION AND PHARMACEUTICAL FORMULATIONS FOR 4-QUINOLINONES AND QUINOLINES AND USE THEREOF” (FUNDACAO UNIVERSIDADE FEDERAL DE SAO CARLOS, priority 2007, published 2010)

Key:
[1] = test system: coagulant serine proteases; experiment: initial screening, coagulant activity of snake venoms; type: biochemical, Bothrops jararacussu, B. moojeni, B. alternatus; conditions: first screening assay, FIG. 2
Description: (§1) This screening was for the venoms of the Bothrops jararacussu, B. moojeni, B. alternatus and B. jararacussu BjussuMP-I snakes to determine promising compounds.
(§2) Aliquots of plasma (0.2 mL) were incubated with venom or venom/inhibitor (50 μL) in varying proportions (m/m) during a period of 30 minutes at 37° C. and the coagulation time was verified. The control tubes included plasma incubated with phosphate buffered saline solution (PBS)+calcium or dimethyl sulphoxide or only the compound.

[2] = test system: venoms and isolated PLA2s; experiment: phospholipase A2 activity (indirect haemolytic); type: biochemical; conditions: induced by venoms of B. jararacussu and C. durissus terrificus and isolated PLA2s
Description: (§3) Indirect haemolytic activity is tested using agarose-erythrocyte-egg yolk gel as a substrate. The compounds are tested following incubation with the pure venoms or PLA2 in varying ratios (m/m).

[3] = target: Class I metalloprotease neuwiedase (Bothrops pauloensis, UniProt Q9I9R4); type: biochemical, B. neuwiedi
Sequence of Class I metalloprotease neuwiedase (Q9I9R4 whole entry, looked up): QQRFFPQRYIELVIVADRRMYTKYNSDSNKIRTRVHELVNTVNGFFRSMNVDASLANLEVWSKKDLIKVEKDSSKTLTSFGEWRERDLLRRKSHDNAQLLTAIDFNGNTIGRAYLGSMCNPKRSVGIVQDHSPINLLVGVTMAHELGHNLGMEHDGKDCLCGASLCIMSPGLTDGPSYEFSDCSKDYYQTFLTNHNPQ

[4] = test system: venoms and isolated PLA2s; experiment: oedema inducing activity in mice; type: in vivo; conditions: induced by venoms of B. jararacussu and C. durissus terrificus and isolated PLA2s
Description: The oedemas are induced by the direct injection of venom (20 μg) and purified proteins (20 μg) into the right leg of male Swiss mice (18-22 g). Inhibition activity is verified incubating the venom or isolated protein with the inhibitor in varying concentrations (m/m). The control groups are injected with 50 μL of phosphate buffered saline solution (PBS, pH=7.2) alone, dimethyl sulphoxide (DMSO) or the compounds. Oedema progression is assessed through measurement of the […] using a pachymeter (Mitutoyo, Japan) at intervals of 30 and 60 minute after injection.

[5] = test system: venom of C. d. terrificus (gyroxin); experiment: coagulant activity, C. d. terrificus venom; type: biochemical; conditions: FIG. 3C
Description: as §2

[6] = test system: snake venoms and isolated metalloprotease; experiment: proteolytic activity in casein (FIG. 3B); type: biochemical, Bothrops; conditions: induced by snake venoms and isolated metalloprotease
[7] = test system: haemorrhagic metalloprotease of the venoms; experiment: initial screening, haemorrhagic metalloprotease of the venoms; set-up: species or system Bothrops jararacussu, B. moojeni, B. alternatus; conditions: first screening assay, FIG. 2
Excerpt: as §1

[8] = test system: venom of B. jararacussu (BjussuSP-I); experiment: coagulant activity, B. jararacussu venom; type: biochemical; conditions: FIG. 3C
Description: as §2

[9] = test system: venom of B. jararacussu, BjussuSP-I and BjussuMP-I; experiment: fibrinogenolytic activity on bovine fibrinogen, SDS-PAGE (FIG. 4A); type: biochemical; conditions: enzymes incubated with inhibitor 30 minutes at 37° C., 1:10 by mass
Description: Lanes: 1—Fibrinogen+venom of B. jararacussu (4 μg)+2 (40 μg); 2—Fibrinogen+enzyme BjussuSP-I (2 μg)+2 (20 μg); 3—Fibrinogen+BjussuMP-I (2 μg)+2 (20 μg); 4—Fibrinogen control. The enzymes were incubated together with 2 for 30 minutes at 37° C. The results are expressed by the mean±S.D (n=3). (B): Interaction between the venom of the B. jararacussu snake and 2. Samples containing venom/toxin (20 μg) and the […] (600 μg) were incubated for 30 minutes at 37° C. at a ratio of 1:30 (w/w). Lanes: 1—BthTX-I+2; 2—BthTX-II+2; 3—venom of B. jararacussu+2; 4—only BthTX-I; 5—only BthTX-II; 6—only the venom of B. jararacussu.

[10] = test system: venoms and isolated PLA2s; experiment: myotoxic activity in mice (plasma CK); type: in vivo; conditions: induced by venoms of B. jararacussu and C. durissus terrificus and isolated PLA2s
[11] = test system: basic Asp49 PLA2s (BthTX-II and CB); experiment: phospholipase A2 activity, basic Asp49 PLA2s; type: biochemical, B. jararacussu and C. d. terrificus; conditions: compared with pure venoms and acid isoform Asp49 BthA-1-PLA2, FIG. 5C
Description: as §3

[12] = test system: venom of Bothrops and the isolated metalloprotease; experiment: haemorrhage induced by Bothrops venoms and isolated metalloprotease (FIG. 3A); type: in vivo; conditions: venom of Bothrops and Crotalus snakes and isolated metalloprotease
Description: FIG. 3A: Effect of compound 2 on the haemorrhage induced by the venom of Bothrops and the isolated metalloprotease. FIG. 3B: Effect of compound 2 on the proteolytic activity induced by the venom of Bothrops and the isolated metalloprotease. FIG. 3C: Effect of the coagulant activity of compound 2 induced by the venoms of Bothrops and Crotalus and the isolated serine protease. The results are expressed by the mean±standard deviation (SD) (n=6).
Therefore, further assays were performed to determine the efficiency of compound 2 for various other activities. FIG. 3A presents the effects of 2 on haemorrhages induced by the different venoms of the Bothrops genus snakes and an isolated metalloprotease.

[13] = test system: snake venoms and isolated serine protease; experiment: coagulant activity in human plasma (FIG. 3C); type: biochemical, Bothrops and Crotalus; conditions: induced by snake venoms and isolated serine protease
Description: as §2

Q: With `O=c1cc(CO)[nH]c2ccccc12` [Compound 1, 2-hydroxymethyl-1,4-dihydro-4-quinolinone] as the compound, how does the “inhibition of coagulant serine proteases” value [1] read?
A: The value was “partial inhibition”.

Q: `COc1ccc2[nH]c(CO)cc(=O)c2c1` [Compound 2, 2-hydroxymethyl-6-methoxy-1,4-dihydro-4-quinolinone] was tested. Which “effect on activity for phospholipase” value [2] did it give?
A: Its value is “partially reduced”.

Q: And the “inhibition of proteolytic activity” value [3]?
A: The value was “approximately 67%”.

Q: What about the effect on oedema [4] of the same compound?
A: The effect on oedema was “partially reduced”.

Q: And the action on coagulation [5]?
A: The action on coagulation was “powerful coagulation action”.

Q: What about the “inhibition of proteolytic activity on casein” value [6] of the same compound?
A: Its value is “significantly inhibits”.

Q: And the “inhibition of the haemorrhagic metalloprotease of the venoms” value [7]?
A: The value was “potential of inhibiting”.

Q: What about the action on coagulation [8] of the same compound?
A: The action on coagulation was “powerful coagulation action”.

Q: What about the “inhibition of fibrinogenolytic activity” value [9] of the same compound?
A: Its value is “inhibition”.

Q: And the “inhibition of coagulant serine proteases” value [1]?
A: The value was “partial inhibition”.

Q: And the effect on myotoxicity [10]?
A: Its effect on myotoxicity is “partially reduced”.

Q: What about the “neutralising PLA2 activity” value [11] of the same compound?
A: Its value is “more efficient”.

Q: What about the “effect on haemorrhages induced by venom” value [12] of the same compound?
A: Its value is “inhibits”.

Q: What about the “inhibition of coagulant activity in human plasma” value [13] of the same compound?
A: Its value is “significantly inhibits”.

Q: With `CCOc1cc(CO)nc2ccc(OC)cc12` [Compound 10, 4-ethoxy-2-hydroxymethyl-6-methoxyquinoline] as the compound, how does the “inhibition of coagulant serine proteases” value [1] read?
A: Its value is “partial inhibition”.

Q: `CCOCc1cc(OCC)c2cc(OC)ccc2n1` [Compound 11, 4-ethoxy-2-ethoxymethyl-6-methoxyquinoline] was tested. Which “inhibition of coagulant serine proteases” value [1] did it give?
A: The value was “partial inhibition”.

Q: Which “inhibition of coagulant serine proteases” value [1] does the source give for `O=C(O)c1cn(C2CC2)c2cc(N3CCNCC3)c(F)cc2c1=O` [Compound 13, 1-ciclopropyl-6-fluoro-1,4-dihydro-4-oxo-7-(1-piperazinyl)-3-quinolinecarboxylic acid, reference compound] here?
A: The value was “partial inhibition”.
